In US20140235445A1, “PESTICIDE COMPOSITIONS INCLUDING POLYMERIC ADJUVANTS” (priority 2009, published 2014):

Test system: fire ants
Assay: fire ant kill test: time to death of all fire ants in a jar coated with dried insecticide composition
Type: in vivo
Method: In this example a series of commercially available insecticides were tested at various dilution levels and with and without a preferred copolymer, namely the AVAIL® copolymer previously described (a 40%-60% w/w aqueous composition of a saturated sodium salt of a maleic anhydride/itaconic acid copolymer in water). In each set of test runs, the selected insecticide was tested with a population of fire ants in order to determine the time required to kill the entire population.
In particular, in each test run 20 ml of the respective liquid insecticide composition was added to a mason jar and swirled around the inside bottom thereof. The liquid was then poured off and the remainder was allowed to dry on the inner jar surface, creating substantially a monomeric dried layer. The outside neck surface of the jar was then coated in talc, and the open end of the jar was placed into a fire ant nest. The talc coating prevented the aggressive fire ants from climbing the outer surface of the jar. A population of fire ants was thus established in each jar, and the jar was then topped with an apertured mason jar cap. The time to death of all of the fire ants was then recorded.
In each case, the recommended concentration of insecticide was prepared (recorded as “1×”), followed by dilutions with water to create the diluted compositions. Where copolymer was used, the copolymer was added to the insecticide with gentle mixing, at a level of 30 ml per gallon. If desired, lesser amounts of copolymer could be used, e.g., 20 ml per gallon.
In another series of tests, insecticides were tested with various copolymers having different ratios of maleic anhydride and itaconic acid moieties, and at different pH levels. In particular, respective copolymeric compositions were prepared made up ofpolymaleic acid, a 1:3 weight ratio of maleic anhydride to itaconic acid, a 1:1 weight ratio of maleic anhydride to itaconic acid, a 3:1 weight ratio of maleic anhydride to itaconic acid, and a 7:1 weight ratio of maleic anhydride to itaconic acid. Individual portions of each of these copolymers were then pH-modified using sodium hydroxide to provide, for each copolymer, portions with no pH adjustment, and with adjustment to pHs of 6, 7, and 8. These pH-modified test copolymers were then mixed with a 1/100× dilution of malathion at a level of 30 ml of copolymer per gallon of insecticide. Similarly, the same pH-adjusted copolymers were mixed with 1/20× water dilutions of permethrin, again at a level of 30 ml of copolymer per gallon of insecticide.
The test products were then used in the same fire ant kill experiment of Example 1, giving the data of Tables 2 and 3.

[1] = Table 1, insecticide at 1/20X dilution, copolymer, where used, 30 ml per gallon
[2] = Table 1, insecticide at 1/10X dilution
[3] = Table 1, insecticide at 1X (recommended concentration), time to kill entire fire ant population

| SMILES | TIME TO DEATH [1] | effect of the copolymer on kill time as compared with the insecticide itself (insecticide with copolymer vs insecticide alone) | TIME TO DEATH [2] | TIME TO DEATH (Table 1, insecticide at 1/100X dilution, copolymer, where used, 30 ml per gallon) | TIME TO DEATH [3] | TIME TO DEATH (Table 2, 1/100X malathion, copolymer 30 ml per gallon, no pH adjustment (pH —)) | TIME TO DEATH (Table 1, insecticide at ⅓X dilution) |
| --- | --- | --- | --- | --- | --- | --- | --- |
| Cc1c(COC(=O)[C@H]2[C@@H](/C=C(\Cl)C(F)(F)F)C2(C)C)cccc1-c1ccccc1 (stereo in doubt) [bifenthrin, (2-methyl-3-phenylphenyl) methyl (1S,3S)-3-[(Z)-2-chloro-3,3,3-trifluoroprop-1-enyl]-2,2-dimethylcyclopropane-1-carboxylate] | 15 min | – | – | – | – | – | – |
| CCOP(=S)(OCC)Oc1cc(C)nc(C(C)C)n1 [Diazinon®] | – | no decrease in kill times | – | – | – | – | – |
| CCOC(=O)CC(SP(=S)(OC)OC)C(=O)OCC (centres unmarked) [malathion, 2-(dimethoxyphosphinothioylthio) butanedioic acid diethyl ester] | 5 min | – | 2 min | 30 min | 1 min | 14 min | – |
| CC1(C)C(C=C(Cl)Cl)C1C(=O)OCc1cccc(Oc2ccccc2)c1 (centres unmarked) [permethrin, (3-phenoxyphenyl) methyl 3-(2,2-dichloroethenyl)-2,2-dimethyl-cyclopropane-1-carboxylate] | 20 min | – | 5 min | – | 5 min | – | 5 min |
